Results: patent US5191072A, “Lipid A monosaccharide analogues” (priority 1989, dated 1993)
Like-named read-outs stand apart in the source and are kept apart here.

Legend:
TNF = assay: TNF-producing activity (TNF titer in serum of mice, cytotoxicity assay using L929 cells); assay type: in vivo; details: 10 μg/mouse intravenously, Corynebacterium parvum-primed ICR mouse, serum at 90 minutes; titer = reciprocal of dilution showing 50% cytotoxicity
Method: TNF-producing activity was evaluated utilizing the following experiment system.
The first stimulating agent, 5% Corynebacterium parvum suspension (0.2 ml physiological saline solution) was intravenously administered to ICR mouse (female, 6-7 week-aged). Nine days later, the second stimulating agent, the compound of this invention was intravenously administered to the same mouse at 10 μg/mouse. In 90 minutes, 0.5-1 ml of blood was taken from the retro orbital plexus. The obtained blood was allowed to clot at room temperature for five to six hours, and centrifuged at 7200×g for five minutes to separate serum. The obtained serum was incubated at 56° C. for 30 minutes for inactivation before use in the following experiment.
TNF activity in the serum was measured with cytotoxicity assay using L929 cells. L929 cells were prepared in concentration of 6×10^4 cells/well (0.1 ml) RPMI 1640 medium containing 10% FBS and 2 μg/ml actinomycin D in 96-well plates. Serial dilution of obtained serum in RPMI 1640 medium containing 10% FBS was added to each well in the plate (0.1 ml/well). After a 48 hr incubation at 37° C., the viable cells were fixed with methanol. […] Next, absorbance at 550 nm was measured. Finally, cytotoxicity ratio (%) was calculated according to the following formula, and the reciprocal of dilution of the serum showing 50% cytotoxicity was determined for TNF titer in serum (U/ml). […]

neutrophils = assay: O2^- production stimulating activity in neutrophils; assay type: cell-based, C3 H/HeN mouse; details: Neutrophil, 1 h, read-out: Stimulation %
Method: O2^- Production Stimulating Activity in Neutrophils
O2^- production stimulating activity in neutrophils was evaluated utilizing the following experimental system [see J. Exp. Med., 160, 1656-1671, 1984]. To the peritoneal cavity of C3 H/HeN mouse (male, 8-9 week-aged), physiological saline containing 0.2% (w/v) casein was administered. Three hours later, peritoneal exudate cells (90% or more of which are neutrophils) were collected. These cells (1.7×10^6 cells/ml/tube) were incubated in the presence of the compound according to this invention (1 μg/ml) at 37° C. for 60 minutes. After addition of 80 μM of cytochrome C and 0.1 μM of formyl-methionyl-leucyl-phenylalanine (FMLP), the mixture was incubated in the presence of or in the absence of Superoxide dismutase (SOD) at 37° C. for 10 minutes. Then, SOD-inhibitable cytochrome C reduction was estimated from the difference between absorbances at 550 nm and 541.7 nm, and from molar absorption coefficient (16.5×10^3). O2^- production-stimulating activity was shown in Stimulation % in the following formula.
Stimulation %=(the amount of O2^- produced in the presence of compounds of the invention)/(the amount of O2^- produced in the absence of compounds of the invention)×100-100

[1] = Lethal toxicity in galactosamine-sensitized mice; assay type: in vivo; details: galactosamine-sensitized mice; intravenous, C57BL mouse, D-galactosamine/HCl 10 mg/mouse i.p.; observed to seventh day; read-out: LD50 (galactosamine load)
Method: (§1) Lethal Toxicity in Galactosamine-Sensitized Mice
(§2) Lethal toxicity in galactosamin-sensitized mice was evaluated by utilizing the following experiment system [see J.Biochem., 98, 395-406 pp., 1985].
(§3) To C57BL mouse (male, 7-week aged), 10 mg/mouse of D-galactosamine/HCl was intraperitoneally administered. Immediately after that, the compound of this invention was intravenously administered. After these administrations, general conditions of the mouse were observed every one hour for seven hours, and every day from the following day to the seventh day.

E.coli. 589 strain = assay: Nonspecific protective activity against bacterial infection in immunosuppressed mouse; assay type: in vivo; details: ICR mice, cyclophosphamide 200 mg/kg, E.coli 1.0×10^7 CFU/mouse i.p.
Method: Nonspecific Protective Activity Against Bacterial Infection in Immunosuppressed Mouse
Protective effect against bacterial infection in immunosuppressed mouse was evaluated by utilizing the following experiment system.
To a group of ten ICR mice (male, 5-week aged), cyclophosphamide (200 mg/kg) was intraperitoneally administered. Three days later, the compound of this invention was also intraperitoneally administered. Twenty four hours later, E.coli. 589 strain, was intraperitoneally inoculated at 1.0×10^7 CFU/mouse. The protective activities against infection was evaluated from survival rate (%) of mice after six days of bacterial infection.

[2] = system: galactosamine-sensitized mice; assay: Lethal toxicity in galactosamine-sensitized mice; assay type: in vivo; details: intravenous, C57BL mouse, D-galactosamine/HCl 10 mg/mouse i.p.; observed to seventh day; 10080 min
Method: as §1, §2, §3

[3] = compound 1 μg/ml, 37° C., 60 minutes, 0.1 μM FMLP, mouse peritoneal exudate cells

| SMILES | the amount of the TNF in serum (TNF) [U/ml] | activation at 1 µg/mL (neutrophils; [3]) [%] | activation at 1 µg/mL (neutrophils; Mus musculus) [%] | LD50 at 168 h [1] [µg/kg] | survival rate of mice after six days of infection (E.coli. 589 strain; 0.05 mg/kg i.p.) [%] | also measured |
| --- | --- | --- | --- | --- | --- | --- |
| CCCCCCCCCCCCC(CCCCCCCCCCC)CC(=O)O[C@H]1[C@H](OP(=O)(O)O)[C@@H](CO)OC(O)[C@@H]1NC(=O)C[C@H](O)CCCCCCCCCCC (mixture of isomers) [Compound 46, 2-deoxy-2-[(3R)-3-hydroxytetradecanamido]-4-O-phosphono-3-O-[(3RS)-3-undecylpentadecanoyl]-D-glucopyranose] | 292354 |  |  |  |  |  |
| CCCCCCCCCCCCCCC(CCCCCCCCCCC)CC(=O)O[C@H]1[C@H](OP(=O)(O)O)[C@@H](CO)OC(O)[C@@H]1NC(=O)C[C@H](O)CCCCCCCCCCC (mixture of isomers) [Compound 47, 2-deoxy-2-[(3R)-3-hydroxytetradecanamido]-4-O-phosphono-3-O-[(3RS)-3-undecylheptadecanoyl]-D-glucopyranose] |  | 73 |  |  |  |  |
| CCCCCCCCCCCCCCCCC(CCCCCCCCCCC)CC(=O)O[C@H]1[C@H](OP(=O)(O)O)[C@@H](CO)OC(O)[C@@H]1NC(=O)C[C@H](O)CCCCCCCCCCC (mixture of isomers) [Compound 48, 2-deoxy-2-[(3R)-3-hydroxytetradecanamido]-4-O-phosphono-3-O-[(3RS)-3-undecylnonadecanoyl]-D-glucopyranose] |  | 69 |  |  |  |  |
| CCCCCCCCCCCCCCC(CCCCCCCCCCC)CC(=O)O[C@H]1[C@H](OP(=O)(O)O)[C@@H](CO)OC[C@@H]1NC(=O)C[C@H](O)CCCCCCCCCCC (stereo partly shown) [Compound 47*] |  |  | 111 | 11.8 |  |  |
| CCCCCCCCCCCCCC(=O)OC(CCCCCCCCCCC)CC(=O)O[C@H]1[C@H](OP(=O)(O)O)[C@@H](CO)OC(O)[C@@H]1NC(=O)CC(O)CCCCCCCCCCC (stereo partly drawn) [GLA60, 2-deoxy-2-(3-hydroxytetradecanaymidno)-4-0-phosphorno-3-0-[(3-O-tetradecanoyl)-tetradecanoyl]-D-glucopyranose] | 216809 |  | 71 | 3 | 43 | survival rate of mice after six days of infection (E.coli. 589 strain; 0.005 mg/kg i.p.): 33%; survival rate of mice after six days of infection (E.coli. 589 strain; 0.5 mg/kg i.p.): 70% |
| CCCCCCCCCCCCCC(=O)OC(CCCCCCCCCCC)CC(=O)NC1C(OCC2OC(OP(=O)(O)O)C(NC(=O)CC(O)CCCCCCCCCCC)C(OC(=O)CC(O)CCCCCCCCCCC)C2O)OC(CO)C(OP(=O)(O)O)C1OC(=O)CC(CCCCCCCCCCC)OC(=O)CCCCCCCCCCCCC (stereo not shown) [Lipid A] |  |  |  |  | 75 | LD50 (galactosamine load) [2]: 0.3 µg/kg |
